Results: US20250282799A1, “SUBSTITUTED PYRIDO[4,3-d]PYRIMIDINES AS KRAS MODULATORS” (Alterome Therapeutics, Inc., priority 2023, published 2025)

tested on: KRAS G12V dependent lung adenocarcinoma cell line, NCI-H441; assay: Cellular pERK (Thr202/Tyr204) FRET/HTRF assay; assay type: cell-based; conditions: Homo sapiens, NCI-H441, pERK HTRF, NCI-H441 cells (KRAS G12V)
Method in brief: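 Adherent NCI-H441 cells, plated the previous night, receive test compound for one hour at 37 °C. They are then lysed with a buffer containing phosphatase inhibitors and incubated at room temperature with Eu3+-cryptate and d2 labelled anti-pERK antibodies. HTRF signal gives IC50 by curve fitting.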

Row | Compound | IC50 [µM]
1 | [2H]C([2H])(Oc1nc(N2CCCC[C@H]3[C@H](F)[C@H]32)c2cnc(-c3cc(N)cc4cc(F)c(F)c(C#C)c34)c(F)c2n1)[C@@]12CCCN1C[C@H](F)C2 [Example 16, 5-Ethynyl-6,7-difluoro-4-(8-fluoro-4-((1S,7R,8S)-8-fluoro-2-azabicyclo[5.1.0]octan-2-yl)-2-(((2R,7aS)-2-fluorotetrahydro-1H-pyrrolizin-7a(5H)-yl)methoxy-d2)pyrido[4,3-d]pyrimidin-7-yl)naphthalen-2-amine] | < 0.05
2 | [2H]C([2H])(Oc1nc(N2CCOC[C@H]3[C@H](F)[C@H]32)c2cnc(-c3cc(N)cc4ccc(F)c(C#C)c34)c(F)c2n1)[C@@]12CCCN1C[C@H](F)C2 [Example 87, 5-Ethynyl-6-fluoro-4-(8-fluoro-4-((1S,7S,8S)-8-fluoro-5-oxa-2-azabicyclo[5.1.0]octan-2-yl)-2-(((2R,7aS)-2-fluorotetrahydro-1H-pyrrolizin-7a(5H)-yl)methoxy-d2)pyrido[4,3-d]pyrimidin-7-yl)naphthalen-2-amine] | < 0.05
3 | [2H]C([2H])(Oc1nc(N2CCOC[C@H]3[C@H](F)[C@H]32)c2cnc(-c3cc(N)cc4cc(F)c(F)c(C#C)c34)c(F)c2n1)[C@@]12CCCN1C[C@H](F)C2 [Example 28, 5-Ethynyl-6,7-difluoro-4-(8-fluoro-4-((1S,7S,8S)-8-fluoro-5-oxa-2-azabicyclo[5.1.0]octan-2-yl)-2-(((2R,7aS)-2-fluorotetrahydro-1H-pyrrolizin-7a(5H)-yl)methoxy-d2)pyrido[4,3-d]pyrimidin-7-yl)naphthalen-2-amine] | < 0.05
4 | [2H]C([2H])(Oc1nc(N2CCCC[C@H]3[C@H](F)[C@H]32)c2cnc(-c3cc(N)cc4ccc(F)c(C#C)c34)c(F)c2n1)[C@@]12CCCN1C[C@H](F)C2 [Example 82, 5-Ethynyl-6-fluoro-4-(8-fluoro-4-((1S,7R,8S)-8-fluoro-2-azabicyclo[5.1.0]octan-2-yl)-2-(((2R,7aS)-2-fluorotetrahydro-1H-pyrrolizin-7a(5H)-yl)methoxy-d2)pyrido[4,3-d]pyrimidin-7-yl)naphthalen-2-amine] | < 0.05
